Laboratory results as given in patent publication US10947273B2, “Peptides of use in the preventive and curative treatment of alopecia” (Institut Europeen de Biologie Cellulaire, priority 2015, dated 2021).
Entries after “also recorded” stand apart in the source; their conditions may differ. The star is where a group is joined. Palmitoyl = CCCCCCCCCCCCCCCC(=O)*

What was measured:
IGF1 = assay: qPCR (TLDA) IGF1 gene expression in HFDPC; type: cell-based, human; settings: relative to untreated controls
Procedure: (§1) To study the effect of 9 peptides on these genes, HFDPC were treated for 24 hours with the molecules tested at 10^−7M and 10^−9M concentrations.
(§2) RNA was extracted and purified from cell pellets using the RNA XS Kit (Macherey-Nagel). RNA quantification was carried out with a NanoDrop device and sample quality was verified on a Bioanalyzer with RNA 6000 Nano chips (Agilent). cDNA was synthesized from 300 ng of RNA using the High-Capacity cDNA Reverse Transcription Kit (LifeTech). Quality-control qPCR assays of the cDNA were carried out in microplates on the reference gene, GAPDH, and the SIRT1 gene.
(§3) Final qPCR experiments were carried out in a 1 μl volume on microfluidic cards (TaqMan Low Density Arrays, LifeTech) and the ABI 7900HT qPCR device. Amplification reactions were performed in duplicate using 1 to 2 ng of cDNA per qPCR reaction and TaqMan Universal Master Mix II (LifeTech).
(§4) Ct values were obtained using the RQ Manager software. For analyses of qPCR results, Ct values were limited to 35 cycles and the duplicate assays are averaged. The GeneXPro software was used for the studies of stability and of selection of the best reference genes. Expression variations are calculated by the relative quantification method and are expressed as percent increase in expression of the gene of interest relative to the untreated controls.

NGF [1] = assay: NGF secretion by NHDF (ELISA/BioPlex); type: cell-based, human; settings: 48h
Procedure: (§5) NHDF, HFDPC, HHFK and NHEM cells were treated with the peptides studied for 48h. At the end of the treatment, cell supernatants were collected and stored at −80° C. until analysis. The factors of interest secreted into the supernatant were assayed by ELISA® (R&D) or BioPlex® (BioRad®).
(§6) The results are expressed as percent increase in the concentration of the factor present in the supernatant relative to the untreated control. The intensity of the effect varies as a function of the concentration of the peptide studied and of the cell type treated.

PDGF [2] = assay: PDGF secretion by HFDPC (ELISA/BioPlex); type: cell-based, human; settings: 48h
Procedure: as §5, §6

HGF [3] = assay: HGF secretion by HHFK (ELISA/BioPlex); type: cell-based, human; settings: 10^−7 M, 48h
Procedure: as §5, §6

VEGF [4] = assay: VEGF secretion by NHEM (ELISA/BioPlex); type: cell-based, human; settings: 10^−7 M, 48h
Procedure: as §5, §6

VEGF [5] = assay: VEGF secretion by NHDF (ELISA/BioPlex); type: cell-based, human; settings: 48h
Procedure: as §5, §6

HGF [6] = assay: HGF secretion by NHDF (ELISA/BioPlex); type: cell-based, human; settings: 48h
Procedure: as §5, §6

VEGF [7] = assay: qPCR (TLDA) VEGF gene expression in HFDPC; type: cell-based, human; settings: peptide 10^−5 M (table title), 24 hours, relative to untreated controls
Procedure: as §2, §3, §4

[8] = tested on: genes whose expression is reduced in subjects characterized by alopecia; assay: qPCR (TLDA) overall statement, genes involved in alopecia, HFDPC; type: cell-based, human; settings: summary of Table 1
Procedure: as §1, §2, §3, §4

HGF [9] = assay: HGF secretion by NHEM (ELISA/BioPlex); type: cell-based, human; settings: 10^−7 M, 48h
Procedure: as §5, §6

KGF [10] = assay: KGF secretion by HFDPC (ELISA/BioPlex); type: cell-based, human; settings: 48h
Procedure: as §5, §6

KGF [11] = assay: qPCR (TLDA) KGF gene expression in HFDPC; type: cell-based, human; set-up: dose or concentration left out as unconfirmed; settings: peptide, 24 hours, relative to untreated controls
Procedure: as §2, §3, §4

BMP2 [12] = assay: BMP2 secretion by HFDPC (ELISA/BioPlex); type: cell-based, human; settings: 10^−9 M, 48h
Procedure: as §5, §6

VEGF [13] = assay: VEGF secretion by HFDPC (ELISA/BioPlex); type: cell-based, human; settings: 48h
Procedure: as §5, §6

BMP2 [14] = assay: qPCR (TLDA) BMP2 gene expression in HFDPC; type: cell-based, human; settings: peptide 10^−7, 24 hours, relative to untreated controls
Procedure: as §1, §2, §3, §4

[15] = tested on: microdissected hairs from scalp surgery specimens; assay: Growth of isolated hair ex vivo; type: cell-based, human; settings: for Growth at D 11/D 12 Vs Control: ex vivo isolated hair
Procedure: (§7) This study was carried out on microdissected hairs from scalp surgery specimens from women aged 52 to 71 years. Isolated hairs were kept alive for 11 to 12 days in Williams medium, under conventional cell culture conditions (37° C., 5% CO2). […]
(§8) To evaluate the effect of (1), (6) or (9) on hair growth, the hairs were photographed and their lengths measured using image analysis software. Thus, the growth of the hairs between D0 and D11/D12 could be calculated and compared with that of the untreated control. At the end of the treatments (D11 or D12), the hairs were collected and frozen or fixed for immunolabeling and histological staining.

follicular markers = assay: Follicular markers in isolated hair ex vivo (immunolabeling); type: cell-based, human; settings: end of treatment D11 or D12, value = marker increased
Procedure: as §7, §8

[16] = tested on: immortalized human skin keratinocytes (HaCaT); assay: CellTiter-Blue proliferation of HaCaT; type: cell-based; settings: 10^−5M, 72 hours
Procedure: Cell proliferation and viability were evaluated in vitro with a kit from Promega, CellTiter-Blue® Cell Viability Assay, for estimating the number of living cells present in the culture. This kit is based on detection, by measurement of fluorescence, of conversion of the dye, resazurin, into a fluorescent product (resorufin) by living and thus metabolically active cells.
The effect of the peptides tested, (1) and (9), at 4 different concentrations (10^−5, 10^−7, 10^−9 and 10^−11M) was examined on five cell types: immortalized human skin keratinocytes (HaCaT), human hair follicular keratinocytes (HHFK), normal human dermal fibroblasts (NHDF), hair follicle dermal papilla cells (HFDPC), and normal human epidermal melanocytes (NHEM) exposed to the molecule studied for 72 hours.

NGF [17] = assay: NGF secretion by HFDPC (ELISA/BioPlex); type: cell-based, human; settings: 10^−9 M, 48h
Procedure: as §5, §6

HGF [18] = assay: HGF secretion by HFDPC (ELISA/BioPlex); type: cell-based, human; settings: 48h
Procedure: as §5, §6

PDGF [19] = assay: qPCR (TLDA) PDGF gene expression in HFDPC; type: cell-based, human; set-up: dose or concentration left out as unconfirmed; settings: peptide, 24 hours, relative to untreated controls
Procedure: as §2, §3, §4

SCF = SCF secretion by NHDF (ELISA/BioPlex); type: cell-based, human; settings: 48h
Procedure: as §5, §6

| Substance | % stimulation IGF1 gene expression (IGF1; peptide 10^−7, 24 hours) | % stimulation IGF1 gene expression (IGF1; peptide 10^−9, 24 hours) | PDGF secretion, percent increase relative to untreated control (PDGF [2]; 10^−7 M) | HGF secretion, percent increase relative to untreated control (HGF [3]) | HGF secretion, percent increase relative to untreated control (HGF [6]; 10^−7 M) | % stimulation VEGF gene expression (VEGF [7]) [%] | stimulation of genes whose expression is reduced in alopecia (in words) [8] | NGF secretion, percent increase relative to untreated control (NGF [1]; 10^−9 M) | PDGF secretion, percent increase relative to untreated control (PDGF [2]; 10^−9 M) | KGF secretion, percent increase relative to untreated control (KGF [10]; 10^−7 M) | KGF secretion, percent increase relative to untreated control (KGF [10]; 10^−9 M) | % stimulation KGF gene expression (KGF [11]) [%] | VEGF secretion, percent increase relative to untreated control (VEGF [5]; 10^−9 M) | VEGF secretion, percent increase relative to untreated control (VEGF [13]; 10^−7 M) | HGF secretion, percent increase relative to untreated control (HGF [6]; 10^−9 M) | also measured |
| --- | --- | --- | --- | --- | --- | --- | --- | --- | --- | --- | --- | --- | --- | --- | --- | --- |
| Palm-Ala-Arg-Ala-Ala-Lys-NH2 (Palmitoyl-ARAAK-NH2; SMILES CCCCCCCCCCCCCCCC(=O)N[C@@H](C)C(=O)N[C@@H](CCCNC(=N)N)C(=O)N[C@@H](C)C(=O)N[C@@H](C)C(=O)N[C@@H](CCCCN)C(N)=O) [(5)] | 29% (10^−7) | 16% (10^−9) | PDGF 55% | HGF 104% | HGF 21% | 10 | stimulate several genes | – | – | – | – | – | – | – | – | NGF secretion, percent increase relative to untreated control (NGF [1]; 10^−5 M): NGF 15%; PDGF secretion, percent increase relative to untreated control (PDGF [2]; 10^−5 M): PDGF 39%; VEGF secretion, percent increase relative to untreated control (VEGF [4]): VEGF 5%; VEGF secretion, percent increase relative to untreated control (VEGF [5]; 10^−5 M): VEGF 12%; HGF secretion, percent increase relative to untreated control (HGF [9]): HGF 8% |
| H-Ala-Arg-Pro-Ala-Lys-OH (H-ARPAK-OH) [Peptide (1)] | 32% (10^−7) | – | PDGF 31% | – | – | – | stimulate several genes | NGF 13% | PDGF 23% | KGF 8% | KGF 25% | 14 | VEGF5% | VEGF 9% | HGF 18% | VEGF secretion, percent increase relative to untreated control (VEGF [5]; 10^−7 M): VEGF 4%; BMP2 secretion, percent increase relative to untreated control (BMP2 [12]): BMP2 22%; VEGF secretion, percent increase relative to untreated control (VEGF [13]; 10^−9 M): VEGF 4%; % stimulation BMP2 gene expression (BMP2 [14]): 26% (10^−7); Growth at D 11/D 12 Vs Control ([15]; 10^−1 M): No effect; Growth at D 11/D 12 Vs Control ([15]; 10^−9 M): +40%; growth increase compared with minoxidil sulphate ([15]; peptide 10^−9M, minoxidil sulphate 10^−5 M): close to that obtained after treatment with minoxidil sulphate; hair growth after 11 to 12 days of treatment ex vivo (in words) ([15]; summary of Table 3): stimulate hair growth; Follicular markers increased Vs Control (follicular markers; 10^−1 M): Coll IV; also recorded: Laminin-5; Follicular markers increased Vs Control (follicular markers; 10^−9 M): Coll IV and CD34; stimulation of proliferation of HaCaT [16]: +15% |
| Palm-Ala-Arg-Pro-Ala-Lys-NH2 (Palmitoyl-ARPAK-NH2; SMILES CCCCCCCCCCCCCCCC(=O)N[C@@H](C)C(=O)N[C@@H](CCCNC(=N)N)C(=O)N1CCC[C@H]1C(=O)N[C@@H](C)C(=O)N[C@@H](CCCCN)C(N)=O) [(3)] | – | – | – | – | – | 83 | stimulate several genes | NGF 89% | PDGF 39% | KGF 53% | KGF 45% | – | VEGF 48% | VEGF 9% | HGF 5% | NGF secretion, percent increase relative to untreated control (NGF [17]): NGF 6%; HGF secretion, percent increase relative to untreated control (HGF [18]; 10^−9 M): HGF 33% |
| Palm-Ala-Arg-Pro-Ala-Lys-OH (Palmitoyl-ARPAK-OH; SMILES CCCCCCCCCCCCCCCC(=O)N[C@@H](C)C(=O)N[C@@H](CCCNC(=N)N)C(=O)N1CCC[C@H]1C(=O)N[C@@H](C)C(=O)N[C@@H](CCCCN)C(=O)O) [(2)] | – | 136% (10^−9) | – | HGF 28% | HGF 13% | 11 | stimulate several genes | – | – | – | – | 71 | – | – | – | % stimulation PDGF gene expression (PDGF [19]): 29%; SCF secretion, percent increase relative to untreated control (SCF; 10^−5 M): SCF 24%; SCF secretion, percent increase relative to untreated control (SCF; 10^−7 M): SCF 37%; HGF secretion, percent increase relative to untreated control (HGF [18]; 10^−5 M): HGF 403%; HGF secretion, percent increase relative to untreated control (HGF [18]; 10^−7 M): HGF 565% |
